# Measured values reported in patent US8071645B2, “Systems and methods for treating human inflammatory and proliferative diseases and wounds, with fatty acid metabolism inhibitors and/or glycolytic inhibitors” (The Regents of the University of Colorado, priority 2003, dated 2011).
# Legend:
# Assay type in all cases: cell-based
# [1] = tested on: cell surface UCP2 on A-204 human rhabdomyosarcoma cells; assay: cell surface UCP2 expression on A-204 cells by flow cytometry; settings: 24, 48, & 72 hours, FIG. 26
# Experimental: Cell Surface Staining. Non-permeabilized cells were stained with antibodies to the cell surface receptors Fas (CD95) (Pharmingen) or with antibodies to uncoupling proteins (anti-UCP2 antibody) (Alpha Diagnostic International). Antibodies for both the isotype control and actual stain were added to the cell suspension, mixed, and then placed on ice for and incubation of 25 minutes in the dark. Subsequently the cells were centrifuged at 300×g for 5 minutes and the supernatant removed. The cells were washed one time with 100 μL of PBS/2.5% FBS and then transferred into flow cytometric tubes containing 500 μL of PBS/2.5% FBS for analysis.
# A204 human rhabdomyosarcoma cells were cultured at a concentration of 0.5 to 1 million cells per ml. Cells were untreated or treated with etomoxir at concentrations indicated in FIG. 24 for 24, 48, & 72 hours. Cells were harvested and analyzed by flow cytometry. Dot plots are shown in FIG. 24 as functions of live versus dead cells. […] Five thousand cells were assessed for forward scatter (FS), as a function of cell size, versus side scatter (SS), as a function of cellular granularity. […]
# Cells were untreated or treated with etomoxir at the concentration indicated in FIG. 26 at the indicated concentration for 24, 48, & 72 hours. Cells were harvested, stained with fluorochrome conjugated with anti-UCP2 antibody and analyzed by flow cytometry.
# [2] = tested on: B16F1 melanoma cells; assay: DCFDA staining (reactive oxygen species) of B16F1 melanoma cells; settings: 48 hours, FIG. 19
# Experimental: Metabolic Activity Assay. Cells were prepared as previously described. The specific metabolic dye was added and mixed into the cell suspension. This plate was then placed into the 37° incubator for a 20-minute incubation. After incubation, the cells were centrifuged at 300×g for 5 minutes, and the supernatant was removed. The cells were then washed once with PBS/2.5% FBS and transferred into flow cytometric tubes containing 500 μL of PBS/2.5% FBS for analysis
# 5-(and -6)-Chloromethyl-2′,7′-dichlorodihydrofluorescein diacetate (CMH2DCFDA) (Molecular Probes). One vial of DCFda provides 10 tests and contains 50 μg. This is unstable and can't be stored. Therefore, each vial was opened and 43 μL of DMSO was added. […]
# Geometric Mean Fluorescence. […] Once the stained sample was plotted against the control (isotype or unstained), geometric mean fluorescence values were obtained for both histogram peaks. The stained control sample value was subtracted from sample to identify the actual fluorescence of the stained sample over that of the control.
# B16F1 melanoma cells of Example 12 were untreated or treated with etomoxir at the indicated concentrations for 48 hours. Cells were harvested, stained with DCFDA as described in Materials and Methods, and analyzed by flow cytometry. The value of DCFDA was then calculated as described in Materials and Methods.
# [3] = tested on: L1210 cells; assay: DCFDA staining (reactive intermediates) of L1210 cells; settings: 24 hours of incubation, FIG. 12A
# Experimental: (§1) Flow Cytometry. Cells were harvested, counted, and resuspended at 10^6 cells/100 μl of PBS containing 2.5% fetal calf serum in preparation for flow cytometric analysis. Cells were stained for intracellular H202 using 6-carboxy-2′,7′-dichlorodihydrofluorescein diacetate (DCF-DA, Molecular Probes, Eugene, Oreg.). Briefly, cells were incubated at 37° with 1 mM DCF-DA for 20 minutes, washed twice in PBS containing 2.5% fetal calf serum and analyzed flow cytometrically. Mitochondrial membrane potential was assessed using Mitotracker Red (CM-H2XROS, Molecular Probes, Eugene, Oreg.). […] The cells were incubated at 37° for 20 minutes, washed twice in PBS containing 2.5% fetal calf serum and analyzed flow cytometrically. Data were acquired on a Coulter Elite Epics or Excel flow cytometer (Coulter, Hialeah, Fla.) and analyzed with CellQuest software, (Becton Dickinson, San Jose, Calif.). […] Each sample population was classified for cell size (forward scatter) and complexity (side scatter), gated on a population of interest and evaluated using 5,000 cells. […]
# (§2) We measured the effects of etomoxir on metabolism by measuring mitochondrial membrane potential with a fluorescent dye (Mitotracker Red, Molecular Probes, Eugene, Oreg.) which fluoresces as a function of mitochondrial potential. […]
# [4] = tested on: L1210 DDP cells; assay: mitochondrial membrane potential (MitoTracker) of L1210 DDP cells; settings: 24 hours of incubation, FIG. 11
# Experimental: as §1, §2
# [5] = tested on: human leukemia RU937 cells; assay: mitochondrial membrane potential (MitoTracker) of RU937 cells; settings: 24 hours of incubation, FIG. 13
# Experimental: Flow Cytometry. Cells were harvested, counted, and resuspended at 10^6 cells/100 μl of PBS containing 2.5% fetal calf serum in preparation for flow cytometric analysis. Cells were stained for intracellular H202 using 6-carboxy-2′,7′-dichlorodihydrofluorescein diacetate (DCF-DA, Molecular Probes, Eugene, Oreg.). Briefly, cells were incubated at 37° with 1 mM DCF-DA for 20 minutes, washed twice in PBS containing 2.5% fetal calf serum and analyzed flow cytometrically. Mitochondrial membrane potential was assessed using Mitotracker Red (CM-H2XROS, Molecular Probes, Eugene, Oreg.). The cells were resuspended in PBS containing 2.5% fetal calf serum containing a final concentration of 0.5 micromolar Mitotracker dye. The cells were incubated at 37° for 20 minutes, washed twice in PBS containing 2.5% fetal calf serum and analyzed flow cytometrically. Data were acquired on a Coulter Elite Epics or Excel flow cytometer (Coulter, Hialeah, Fla.) and analyzed with CellQuest software, (Becton Dickinson, San Jose, Calif.). […] Each sample population was classified for cell size (forward scatter) and complexity (side scatter), gated on a population of interest and evaluated using 5,000 cells. […]
# The effects of etomoxir on human leukemia RU937 cells was determined. […]
smiles,measurement,setting,value
"CCOC(=O)C1(CCCCCCOc2ccc(Cl)cc2)CO1 (centres unmarked) [etomoxir, 2-(6-(4-chlorophenoxy)-hexyl)-oxirane-2-carboxylic acid ethyl ester]",cell surface UCP2 expression in the live cells,[1],time dependent “fold” increases
same,reactive oxygen species as measured by DCFDA,[2],dose dependent increase
same,"free radicals (reactive intermediates), DCFDA staining",[3],increase
same,mitochondrial membrane potential (MitoTracker),[4],increase
same,levels of mitochondrial membrane potential (MitoTracker),[5],increased
